The values that follow come from ChEMBL document CHEMBL4184174 (Bioorg Med Chem Lett, 2018).

A value given as a limit tells only on which side of the number the result lay.

Data set [1] addresses T1, Alkaline phosphatase, tissue-nonspecific isozyme (Homo sapiens, UniProt P05186).
T1 sequence (P05186 whole entry): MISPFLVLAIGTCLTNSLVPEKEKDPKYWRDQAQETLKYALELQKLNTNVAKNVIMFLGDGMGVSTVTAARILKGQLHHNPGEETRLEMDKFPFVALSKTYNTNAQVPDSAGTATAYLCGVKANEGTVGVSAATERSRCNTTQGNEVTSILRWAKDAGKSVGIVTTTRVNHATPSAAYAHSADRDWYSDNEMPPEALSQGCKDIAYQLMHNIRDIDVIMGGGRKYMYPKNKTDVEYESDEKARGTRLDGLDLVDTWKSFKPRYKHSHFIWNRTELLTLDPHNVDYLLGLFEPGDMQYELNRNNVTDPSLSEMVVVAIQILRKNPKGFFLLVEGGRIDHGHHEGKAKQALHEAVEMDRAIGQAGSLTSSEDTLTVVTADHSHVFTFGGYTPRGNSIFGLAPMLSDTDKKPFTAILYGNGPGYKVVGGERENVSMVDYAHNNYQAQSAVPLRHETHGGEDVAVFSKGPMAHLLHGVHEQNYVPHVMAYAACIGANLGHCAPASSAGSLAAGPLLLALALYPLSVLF
Put plainly: Inhibition of TNAP (unknown origin) using PPi as substrate.

The target of data set [2] is T1, Alkaline phosphatase, tissue-nonspecific isozyme. Put plainly: Inhibition of TNAP (unknown origin) in whole blood using pNPP as substrate.
Data set [3] has as its target Alkaline phosphatase, placental type (Homo sapiens, UniProt P05187). Put plainly: Inhibition of PLAP (unknown origin).
Data set [4] can be described thus: Volume of distribution in mouse at 2 mg/kg, iv. The data set is classed as ADME, organism-based. To be noted: in vivo.
Data set [5] can be described thus: Half life in mouse at 10 mg/kg, po. The class given is ADME, organism-based. To be noted: in vivo.
The target of data set [6] is Intestinal-type alkaline phosphatase (Homo sapiens, UniProt P09923). The experiment in a line: Inhibition of IAP (unknown origin).
For data set [7], the system named is Mus musculus. The experiment in a line: In vivo inhibition of TNAP in mouse plasma at 10 mg/kg, po administered as single dose measured at 24 hrs relative to control. The class given is functional.
The subject of data set [8] is Mus musculus. The experiment in a line: In vivo inhibition of TNAP in mouse plasma at 10 mg/kg, po administered as single dose after 8 hrs relative to control. The data set is classed as functional.
The test system of data set [9] is Mus musculus. The experiment in a line: Oral bioavailability in mouse at 10 mg/kg. The class given is ADME, organism-based. The settings on record: in vivo.
Data set [10] is described as follows: Cmax in mouse at 10 mg/kg, po. The data set is classed as ADME, organism-based. The settings on record: in vivo. Also noted: dose 10 mg/kg, route oral.
Data set [11] concerns Mus musculus. The experiment in a line: (§1) AUC in mouse at 10 mg/kg, po. The class given is ADME, organism-based. The settings on record: in vivo.
The nature of data set [12]: Clearance in mouse plasma at 2 mg/kg, iv. The data set is classed as ADME, organism-based.
Data set [13] is described as follows: as §1. The class given is ADME, organism-based. To be noted: in vivo.

Intestinal-type alkaline phosphatase, sequence (P09923 whole entry): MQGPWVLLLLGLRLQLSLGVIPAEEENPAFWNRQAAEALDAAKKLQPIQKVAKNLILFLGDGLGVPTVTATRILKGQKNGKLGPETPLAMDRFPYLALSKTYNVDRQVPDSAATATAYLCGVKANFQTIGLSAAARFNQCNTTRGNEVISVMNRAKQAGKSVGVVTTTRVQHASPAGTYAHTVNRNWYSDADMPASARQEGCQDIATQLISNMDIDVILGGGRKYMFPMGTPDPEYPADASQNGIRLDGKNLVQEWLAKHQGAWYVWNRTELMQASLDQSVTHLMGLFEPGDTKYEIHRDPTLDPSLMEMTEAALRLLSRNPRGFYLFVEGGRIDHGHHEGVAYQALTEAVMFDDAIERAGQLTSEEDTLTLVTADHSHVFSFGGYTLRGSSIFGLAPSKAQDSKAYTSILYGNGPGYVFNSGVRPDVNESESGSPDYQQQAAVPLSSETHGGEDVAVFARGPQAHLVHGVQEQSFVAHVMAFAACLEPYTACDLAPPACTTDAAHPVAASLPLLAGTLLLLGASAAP
Alkaline phosphatase, placental type, sequence (P05187 whole entry): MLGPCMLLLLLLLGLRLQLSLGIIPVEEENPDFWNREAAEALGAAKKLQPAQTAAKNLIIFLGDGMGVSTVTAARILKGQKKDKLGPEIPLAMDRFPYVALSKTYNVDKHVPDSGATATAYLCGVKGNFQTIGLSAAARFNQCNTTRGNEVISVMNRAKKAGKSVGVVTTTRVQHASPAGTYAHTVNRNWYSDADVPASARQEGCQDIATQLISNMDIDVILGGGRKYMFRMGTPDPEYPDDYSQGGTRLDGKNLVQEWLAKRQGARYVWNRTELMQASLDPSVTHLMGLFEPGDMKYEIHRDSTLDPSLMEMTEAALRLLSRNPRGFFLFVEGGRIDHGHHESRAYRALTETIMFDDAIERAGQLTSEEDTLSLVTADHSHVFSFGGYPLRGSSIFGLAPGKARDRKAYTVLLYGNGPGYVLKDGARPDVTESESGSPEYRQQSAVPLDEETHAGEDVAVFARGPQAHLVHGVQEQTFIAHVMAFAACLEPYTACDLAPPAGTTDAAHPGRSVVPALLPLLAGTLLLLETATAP

Usually IC50 stands for the concentration that gives 50% inhibition. Take `COc1ccc(-c2ccccc2)cc1S(=O)(=O)Nc1cccnc1`: the figures for the IC50 in data set [1] and in [2] were 876 nM and greater than 20000 nM, respectively.
The Vd is the apparent volume that relates the amount in the body to the concentration in plasma or blood. The term half-life denotes the time in which the quantity being followed falls by half. Read a low half-life as fast loss. The inhibition in vivo is the relative decrease from the control value, in per cent. In general, Cmax refers to the highest concentration seen after dosing. The term AUC denotes the area under the concentration-time curve, a measure of exposure. Low values mean less exposure, high ones more exposure. On to `COc1ccc(Cl)cc1S(=O)(=O)Nc1cncc(C(N)=O)c1`, for which the values for the IC50 in data set [3], in data set [6] and in data set [2] were greater than 80000 nM, greater than 80000 nM and 105 nM, respectively. Also, the Vd in data set [4] stood at 1.03 L/kg. Moreover, the half-life in data set [5] was 2.3 h. Besides, the inhibition in vivo at 10 mg/kg in the data set on Mus musculus [7] was 50%; in the data set with Mus musculus [8] it was greater than 75%. In addition, the F in the data set with Mus musculus [9] is 58%. In data set [10], the peak level (Cmax) was 178 µg/mL. Besides, the area under the curve (AUC) in the data set on Mus musculus [11] was 848 µg·h/mL.
Consider `COc1ccc(Br)cc1S(=O)(=O)Nc1cncc(C(N)=O)c1`, for which the Vd in data set [4] turned out to be 0.31 L/kg. For the same compound, in data set [5], the half-life was 2.2 h. The F with Mus musculus [9] is recorded as 70%. The compound further returned a Cmax in data set [10] of 133 µg/mL. This compound also registered an AUC with Mus musculus [11] of 603 µg·h/mL.
Broadly, the clearance is a measure of how efficiently the substance is removed, as volume per time. A lower clearance goes with inefficient removal. In turn, `COc1ccc(F)cc1S(=O)(=O)Nc1cncc(C(N)=O)c1` showed a Vd in data set [4] of 0.88 L/kg. Also, the half-life in data set [5] is 3.7 h. This compound registered a clearance in data set [12] of 16.8 mL/min/kg. Also, the F in the data set with Mus musculus [9] is greater than 100%. The compound further yielded a Cmax in data set [10] of 63 µg/mL. For the same compound, in data set [13], the AUC turned out to be 141 µg·h/mL.
